The results in this text go back to patent US10919896B2, “Preparation and uses of pyrimidinone derivatives” (Cancer Research Technology Limited, priority 2016, dated 2021).

The test system of experiment [1] is Cdc7 (pS40MCM2 levels in HCT116 cells). The experiment can be described thus: Cdc7 Cell Pharmacodynamics Assay Method 2A: pS40MCM2 levels in HCT116 cells, 6 hours. It counts as cell-based. Particulars: Homo sapiens, HCT-116, read-out: Biomarker Method 2A (pEC50) (converted). An excerpt:
(§1) This protocol describes a method to investigate the inhibition of Cdc7 activity by measuring pS40MCM2 levels in cells, after treatment with compounds.
(§2) • HCT116 cells (ATCC, #CCL-247) • McCoys 5A with L-glutamine (Cellgro, #10-050-CV) • 10% FCS (Cellgro, #35-010-CV) • D-PBS without CaCl2 and MgCl2 (Cellgro, #21-031-CV) • Trypsin/EDTA (Cellgro, #25-052-CL) • BSA (Calbiochem, 126593) • Cell Extraction Buffer (Invitrogen FNN0011) • Protease inhibitor cocktail (Sigma P-2714) • PMSF 0.3M stock in DMSO (Sigma P7626) • Antibody-rabbit pMCM2 Ser40 (Abcam, AB133243) • Antibody-goat MCM2 (Bethyl #A300-122A) • Antibody-goat Anti Rabbit IgG HRP (Thermo, 31462) • SuperSignal ELISA Pico Chemiluminescent Substrate (Perbio Science UK Ltd 37069) • 10×PBS (Growcells, MRGF-6236) • Triton X100 (Sigma, P-T8787) • DMSO (Fisher, D128-1) • 2-Propanol (J. T. Baker, 9095-03) Method • Seed 1×10^6 HCT116 cells into each of two 175 cm^2 flask containing 30 mL Cell Growth Media and incubate at 37° C., 5% CO2 for 3 days. • Harvest the cells from one T175 cm^2 flask and count. • Dilute with Cell Growth Media to a cell density of 2×10^5. Dispense 100 μL to each well (20,000 HCT116 cells/well) of TC treated 96-well plate(s). • Allow cells to settle overnight in incubator set at 37° C. and 5% CO2. • Cell treatment: Transfer 0.25 μL/well from the compound plate to the wells of the cell plate(s). This is a 1:400 dilution of compound in the assay. • Once all cells are treated place the cells back to the incubator and incubate for either 6 hours (Method 2A) or 18 hours (Method 2B). • Dilute the capture antibody (total MCM2#A300-122A) 1 in 250 in the required volume of PBS (5 mL per assay plate, plus 5 mL for dead volume) and add 50 μL to each well of a Hybond plate except wells A12 & B12. Seal the plate and incubate at room temperature for a minimum of 2 hours. • Defrost aliquot of Invitrogen Cell Extraction Buffer (FNN0011) on ice and supplement with appropriate volume of both Sigma protease inhibitor cocktail (P-2714) and PMSF (final conc 1 mM from a 1 M stock in DMSO). • After the 6 hour or 18 hour cell treatment time, tap out the media from the assay plates and place them in the −70° C. freezer for at least 5 minutes. • Flick out the remaining liquid in the previously prepared capture Ab plate(s) and add 200 μL 2% BSA per well. Incubate for 1 hour at room temperature. • Remove plates from freezer and add 20 μL of ice cold complete lysis buffer. Incubate cells for 30 minutes at 4° C. • Add 30 μL per well 2% BSA • At the end of the 1 hour incubation, wash the Capture/ELISA plate(s) with Wash Buffer on the BioTek plate washer. • Transfer 40 μL per well of the lysis plate(s) to the same wells in the Capture/ELISA plate. Incubate cells overnight at 4° C. • At the end of the overnight incubation, wash the ELISA plate(s) with Wash Buffer on BioTek plate washer. • Prepare Detection Antibody Buffer and dispense 50 μL to all wells of ELISA plate(s) except wells G1 & H1. Cover plate and incubate at room temperature for 2 hours with gentle shaking. • At the end of the 2 hour incubation, wash the ELISA plate(s) with Wash Buffer on the BioTek plate washer. • Prepare the Conjugated Antibody Buffer and dispense 50 μL to all wells of ELISA plate(s). • Cover the plate and incubate at room temperature for 1 hour with gentle shaking. • At the end of the 1 hour incubation, wash the ELISA plate(s) with Wash Buffer on the BioTek plate washer. • Prepare Substrate Buffer and dispense 50 μL to all wells of ELISA plate(s). • Incubate for a minimum of 10 minutes and read plates on the EnVision 2100 Multilabel Reader (Mirror: Luminescence (404) & Luminescence 700 (212); Measurement Height: 6.5 mm; Measurement Time: 0.2 s). Method 3

For the next experiment, the target named is Cdc7/Dbf4 (Homo sapiens, UniProt O00311). The experiment can be described thus: Cdc7 Biochemical Assay Method 3: Cdc7/Dbf4 Enzyme TR-FRET Assay measuring pS40MCM2. Particulars: 1 μM ATP, read-out: Biochemical Method 3 (pIC50) (converted). An outline of the steps:
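TR-FRET read-out (terbium anti-rabbit donor, streptavidin-Alexa Fluor488 acceptor, anti-Mcm2 pS40 antibody) of peptide phosphorylation after 120 min at 25° C; reaction held 1 μM ATP, 100 nM biotin-tagged peptide substrate and 2.5 nM enzyme complex.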

The test system of experiment [2] is Cdc7 (pS53MCM2 levels in SW48 cells). The experiment is described as follows: Cdc7 Cell Pharmacodynamics Assay Method 3: pS53MCM2 levels in SW48 cells, 6 hours. It is filed as cell-based. The following applies: Homo sapiens, SW48, 6 h, read-out: Biomarker Method 3 (pEC50) (converted). An excerpt:
This protocol describes a method to investigate the inhibition of Cdc7 activity by measuring pS53MCM2 levels in cells, after treatment with compounds.
• SW48 cells • RPMI 1640 (Sigma, R5886) • 10% FCS (Sera Laboratories International Ltd, EU000F Batch:108005) • 100× L-Glutamine (Invitrogen, 25030-024) • D-Glucose Solution (10%) (Sigma, G8644) • HEPES Buffer Solution (Sigma, 83264) • Sodium Pyruvate (Sigma, S8636) • PBS (Fisger, BP399-4) • Trypsin/EDTA (Invitrogen 25300-054) • 2% BSA in PBS • Cell Extraction Buffer (Invitrogen FNN0011) • Protease inhibitor cocktail (Sigma P-2714) • PMSF 0.3M stock in DMSO (Sigma P7626) • Antibody-rabbit pMCM2 Ser53 (Bethyl #A300-756A) • Antibody-goat MCM2 (Bethyl #A300-122A) • Antibody-goat Anti Rabbit IgG HRP (Perbio Science UK Ltd 31462) • SuperSignal ELISA Pico Chemiluminescent Substrate (Perbio Science UK Ltd 37070) Method • Plate 30,000 SW48 cells per well in standard TC treated 96 well plate in 100 μL complete RPMI 1640 medium. • Allow cells to settle overnight in incubator set at 37° C. and 5% CO2. • Cell treatment: prepare a 384 well plate containing 80 μl PBS/well. The PBS should be at room temperature—to be referred to as intermediate plate. Transfer 2 μL of compound from mother plate to intermediate (daughter plate) 1:40 dilution, then 5 μL intermediate to cell (daughter) plate. • Once all cells are treated place the cells back to the incubator and incubate for 6 hours. • Dilute the capture antibody (total MCM2#A300-122A) 1 in 250 in the required volume of PBS (5 mL per assay plate, plus 5 mL for dead volume) and add 50 μL to each well of a Hybond plate. Seal the plate and incubate at room temperature for a minimum of 2 hours. • Defrost aliquot of Invitrogen Cell Extraction Buffer (FNN0011) on ice and supplement with appropriate volume of both Sigma protease inhibitor cocktail (P-2714) and PMSF (final conc 1 mM from a 1 M stock in DMSO). • After the 6 hour cell treatment time, tap out the media from the assay plates and place them in the −80° C. freezer for at least 5 minutes. • Remove plates from freezer and add 20 μL of ice cold complete lysis buffer, with the multidrop. Incubate cells for 30 minutes at 4° C. • Add 80 μL per well 2% BSA. • Flick out the remaining liquid from the capture plate and transfer 80 μL from the lysis plate to the same wells in the capture/ELISA plate, using the Biomek. Cover with plate seal and incubate plates overnight at 4° C. • Wash plates with PBS, remove any residual remaining liquid and add 50 μL per well of pMCM2 Ser53 antibody (#A300-756A) diluted 1 in 100 in 2% BSA. Cover plate and incubate at room temperature for 2 hours with gentle shaking. • Wash plates with PBS, remove any residual remaining liquid and Incubate with 50 μL goat anti rabbit antibody (1 in 800 dilution in 2% BSA), for 1 hour at room temperature. • Wash plates with PBS, remove any residual remaining liquid and add 50 μL mixed SuperSignal Pico substrate. • Incubate each plate for 5 minutes at room temperature shielding the plates from direct light (with a cover plate). Read plates with the luminescent detection.

The subject of experiment [3] is Cdc7 (pS40MCM2 levels in HCT116 cells). The experiment is described as follows: Cdc7 Cell Pharmacodynamics Assay Method 2B: pS40MCM2 levels in HCT116 cells, 18 hours. It is filed as cell-based. Particulars: Homo sapiens, HCT-116, read-out: Biomarker Method 2B (pEC50) (converted).
Excerpt: as §1, §2

Sequence of Cdc7/Dbf4 (O00311 whole entry): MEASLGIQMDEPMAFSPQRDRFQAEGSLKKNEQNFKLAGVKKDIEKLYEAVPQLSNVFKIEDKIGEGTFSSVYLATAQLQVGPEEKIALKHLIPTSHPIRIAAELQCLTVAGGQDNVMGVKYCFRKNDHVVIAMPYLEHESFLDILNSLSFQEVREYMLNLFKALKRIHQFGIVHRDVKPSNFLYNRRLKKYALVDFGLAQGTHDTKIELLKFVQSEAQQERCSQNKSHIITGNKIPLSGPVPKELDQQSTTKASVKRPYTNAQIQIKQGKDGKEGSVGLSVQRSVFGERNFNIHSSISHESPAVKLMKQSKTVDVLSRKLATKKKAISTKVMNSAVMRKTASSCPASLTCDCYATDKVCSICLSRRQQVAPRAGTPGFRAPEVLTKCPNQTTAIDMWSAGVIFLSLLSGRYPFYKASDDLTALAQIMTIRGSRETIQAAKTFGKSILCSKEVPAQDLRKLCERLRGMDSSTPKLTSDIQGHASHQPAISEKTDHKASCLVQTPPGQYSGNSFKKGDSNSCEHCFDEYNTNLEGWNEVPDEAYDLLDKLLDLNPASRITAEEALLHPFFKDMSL
Sequence of Cdc7/Dbf4 (Q9UBU7 whole entry partner): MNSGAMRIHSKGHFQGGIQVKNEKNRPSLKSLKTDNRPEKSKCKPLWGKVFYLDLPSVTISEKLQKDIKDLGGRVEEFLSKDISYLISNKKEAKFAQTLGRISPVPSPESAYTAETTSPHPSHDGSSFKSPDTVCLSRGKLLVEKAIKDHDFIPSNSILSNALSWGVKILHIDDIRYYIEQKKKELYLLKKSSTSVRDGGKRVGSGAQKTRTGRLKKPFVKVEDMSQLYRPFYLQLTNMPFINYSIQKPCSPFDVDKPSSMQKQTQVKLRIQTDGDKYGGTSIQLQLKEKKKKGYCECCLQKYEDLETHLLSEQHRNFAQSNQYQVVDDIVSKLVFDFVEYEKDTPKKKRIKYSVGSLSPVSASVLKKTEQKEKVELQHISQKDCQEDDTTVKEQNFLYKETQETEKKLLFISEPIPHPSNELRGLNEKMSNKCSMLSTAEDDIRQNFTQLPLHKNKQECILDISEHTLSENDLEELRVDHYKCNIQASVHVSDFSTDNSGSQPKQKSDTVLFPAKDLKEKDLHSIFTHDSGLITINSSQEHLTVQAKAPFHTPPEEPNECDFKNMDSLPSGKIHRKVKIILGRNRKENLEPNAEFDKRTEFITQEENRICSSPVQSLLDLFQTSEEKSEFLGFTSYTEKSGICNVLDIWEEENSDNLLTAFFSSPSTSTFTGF

For `NC1CN(c2nc(-c3ccnc(F)c3)[nH]c(=O)c2Cl)CCC1F` (mixture of isomers) [Compound 252], the EC50 in experiment [1] is 38 nM. Besides, the IC50 on Cdc7/Dbf4 was 0.617 nM.

With `C[C@H]1CN[C@@H](C(F)(F)F)CN1c1nc(-c2ccnc(F)c2)[nH]c(=O)c1Cl` (racemic) [Compound 378, Cis-5-chloro-2-(2-fluoro-4-pyridyl)-4-[2-methyl-5-(trifluoromethyl)piperazin-1-yl]-1H-pyrimidin-6-one], the EC50 in experiment [2] is 2090 nM; in experiment [3], 437 nM. For the same compound, the IC50 on Cdc7/Dbf4 was 5.89 nM.

In the case of `N[C@@H]1CCCCN(c2nc(-c3ccnc(F)c3)[nH]c(=O)c2Cl)C1` [Compound 183, 4-[(3R)-3-aminoazepan-1-yl]-5-chloro-2-(2-fluoro-4-pyridyl)-1H-pyrimidin-6-one 2,2,2-trifluoroacetic acid], the EC50 in experiment [1] was 148 nM. Besides, the IC50 on Cdc7/Dbf4 was 0.513 nM.

Take `N[C@H]1CCCCN(c2nc(-c3ccnc(F)c3)[nH]c(=O)c2Cl)C1` [Compound 188]: the EC50 in experiment [1] is 170 nM. Further, the IC50 on Cdc7/Dbf4 was 1.74 nM.

As for `O=c1[nH]c(-c2ccnc(F)c2)nc(N2CCNCC(O)C2)c1Cl` (stereo not shown) [Compound 190], in experiment [1], the EC50 was 741 nM. For the same compound, the IC50 on Cdc7/Dbf4 is 0.708 nM.

With `O=c1[nH]c(-c2ccnc(F)c2)nc(N2C3CCC2COC3)c1Cl` [Compound 192], the EC50 was 89.1 nM in experiment [1] and 49 nM in experiment [3]. At Cdc7/Dbf4, the IC50 is 0.813 nM.

Regarding `CN[C@@H]1CCCN(c2nc(-c3ccnc(F)c3)[nH]c(=O)c2Cl)C1` [Compound 196], in experiment [1], the EC50 was 72.4 nM. Moreover, the IC50 on Cdc7/Dbf4 is 1.91 nM.

Consider `CN[C@H]1CCCN(c2nc(-c3ccnc(F)c3)[nH]c(=O)c2Cl)C1` [Compound 197], for which the EC50 in experiment [1] is 316 nM. For the same compound, the IC50 on Cdc7/Dbf4 is 2.4 nM.

Take `O=C1CCCN(c2nc(-c3ccnc(F)c3)[nH]c(=O)c2Cl)CC1` [Compound 203]: the EC50 in experiment [1] was 363 nM. In addition, the IC50 on Cdc7/Dbf4 is 2.95 nM.

For `CC[C@@H]1CN(c2nc(-c3ccnc(F)c3)[nH]c(=O)c2Cl)CCO1` [Compound 205], the EC50 in experiment [1] was 275 nM. Moreover, the IC50 on Cdc7/Dbf4 is 1.41 nM.

Consider `O=c1[nH]c(-c2ccnc(F)c2)nc(N2CCCNCC2)c1Cl` [Compound 206], for which the EC50 in experiment [2] is 562 nM; in experiment [3], 39.8 nM. Also, the IC50 at Cdc7/Dbf4 was 0.0977 nM.

In the case of `O=C1CCN(c2nc(-c3ccnc(F)c3)[nH]c(=O)c2Cl)CC1` [Compound 234], the EC50 in experiment [1] was 38.9 nM. The IC50 at Cdc7/Dbf4 is 1.38 nM.

Take `N[C@@H]1CN(c2nc(-c3ccnc(F)c3)[nH]c(=O)c2Cl)CC[C@H]1O` [Compound 235]: the EC50 in experiment [1] was 1120 nM. Moreover, the IC50 at Cdc7/Dbf4 is 1.2 nM.

As for `O=c1[nH]c(-c2ccnc(F)c2)nc(N2CCC3NCCC32)c1Cl` (stereo not shown) [Compound 243], the EC50 in experiment [1] was 288 nM. Besides, the IC50 on Cdc7/Dbf4 is 2 nM.

As for `O=c1[nH]c(-c2ccnc(F)c2)nc(N2C3CCC2CNC3)c1Cl` [Compound 262], the EC50 in experiment [2] is 347 nM; in experiment [3], 19.5 nM. In addition, the IC50 on Cdc7/Dbf4 is 0.851 nM.

For `C[C@@H]1CCCN1c1nc(-c2ccnc(F)c2)[nH]c(=O)c1Cl` [Compound 279], the EC50 in experiment [2] is 1320 nM; in experiment [3], 57.5 nM. In addition, the IC50 on Cdc7/Dbf4 is 0.724 nM.

For the compound `O=c1[nH]c(-c2ccnc(F)c2)nc(N2CCOCC(F)(F)C2)c1Cl` [Compound 286], the EC50 is 513 nM in experiment [2] and 15.5 nM in experiment [3]. Moreover, at Cdc7/Dbf4, the IC50 was 0.229 nM.

Regarding `C[C@H]1CNCCN1c1nc(-c2ccnc(F)c2)[nH]c(=O)c1Cl` [Compound 326], the EC50 in experiment [1] is 40.7 nM. In addition, the IC50 on Cdc7/Dbf4 was 0.49 nM.

Consider `C[C@@H]1COCCN1c1nc(-c2ccnc(F)c2)[nH]c(=O)c1Cl` [Compound 328], for which the EC50 in experiment [1] was 3.89 nM. The IC50 on Cdc7/Dbf4 is 0.575 nM.

`CC1(C)COCCN1c1nc(-c2ccnc(F)c2)[nH]c(=O)c1Cl` [Compound 339]: the EC50 in experiment [2] is 110 nM; in experiment [3] it was 10.7 nM. In addition, at Cdc7/Dbf4, the IC50 is 0.479 nM.

On to `CC1(C)CNCCN1c1nc(-c2ccnc(F)c2)[nH]c(=O)c1Cl` [Compound 358], for which the EC50 is 89.1 nM in experiment [2] and 2.45 nM in experiment [3]. On Cdc7/Dbf4, the IC50 is 1.15 nM.

Take `O=C1CNCCN(c2nc(-c3ccnc(F)c3)[nH]c(=O)c2Cl)C1` [Compound 412, 1-[5-chloro-2-(2-fluoro-4-pyridyl)-6-oxo-1H-pyrimidin-4-yl]-1,4-diazepan-6-one 2,2,2-trifluoroacetic acid]: the EC50 in experiment [1] is 339 nM. The IC50 at Cdc7/Dbf4 is 0.646 nM.
